Calls of active or inactive are those of the source.
Experiments:
[1] = molecular target: E3 ubiquitin-protein ligase Mdm2 (Homo sapiens, UniProt Q00987); test: enhancers of MDM2-luciferase reporter signal, concentration-effect titration, project on inhibitors of MDM2 ubiquitin ligase, cellular assay, luminescent readout, 384-well plate format (AID 1394); type: functional;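 further: MDM2 E3 inhibitors raise luminescence so EC50 is for signal enhancement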
[2] = test system: Streptococcus sp. 'group A'; test: growth inhibition of control SK(-) GAS strain, dose response, counter-screen for streptokinase expression inhibitor project, luminescence, kanamycin, BacTiterGlo, confirmation (AID 1900); type: functional, organism-based
Streptococcus = test: Group A Streptococcus viability loss, dose response, counter-screen for streptokinase expression inhibitor project, luminescence, BacTiterGlo (AID 1915); type: functional, organism-based;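 further: potency for reduction of bacterial viability or growth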
[3] = THP-1 cell cytotoxicity, dose response, cytotoxicity control for non-replicating M. tuberculosis project (AID 489025); type: functional
[4] = Vero E6 cell cytotoxicity, dose response, cytotoxicity control for non-replicating M. tuberculosis project, secondary assay (AID 492998); type: functional, VeroE6; conditions: Vero C1008
cells = type: functional
[5] = M. tuberculosis growth inhibition, HTS (AID 449762); type: functional
[6] = molecular target: Mitochondrial peptide methionine sulfoxide reductase (Bos taurus, UniProt P54149); test: Absorbance-based biochemical high throughput dose response assay for activators of Methionine sulfoxide reductase A (MsrA).; type: functional
Ephrin type-A receptor 4 = Ephrin type-A receptor 4 (Mus musculus, UniProt Q03137); test: inhibitors of EphA4 binding to KYL peptide, primary screen, biochemical, colorimetric, mouse EphA4 (AID 689); type: functional
SUMO-activating enzyme [7] = molecular target: T1, SUMO-activating enzyme (Homo sapiens, UniProt Q9UBT2); test: SUMOylation inhibitor hit validation, confirmation, SUMOylation inhibitor project, biochemical, AlphaScreen (AID 2018); type: functional
T1 sequence (Q9UBE0 whole entry): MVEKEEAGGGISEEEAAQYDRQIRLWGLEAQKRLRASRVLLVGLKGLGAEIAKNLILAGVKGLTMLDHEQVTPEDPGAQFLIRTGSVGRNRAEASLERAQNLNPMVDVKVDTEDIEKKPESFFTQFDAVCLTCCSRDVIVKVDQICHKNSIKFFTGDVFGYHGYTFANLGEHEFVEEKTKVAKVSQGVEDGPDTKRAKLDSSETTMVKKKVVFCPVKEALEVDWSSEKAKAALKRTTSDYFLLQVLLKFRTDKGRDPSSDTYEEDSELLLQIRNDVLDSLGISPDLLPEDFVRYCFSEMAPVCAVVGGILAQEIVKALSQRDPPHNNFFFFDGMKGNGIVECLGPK
T1 sequence (Q9UBT2 whole entry): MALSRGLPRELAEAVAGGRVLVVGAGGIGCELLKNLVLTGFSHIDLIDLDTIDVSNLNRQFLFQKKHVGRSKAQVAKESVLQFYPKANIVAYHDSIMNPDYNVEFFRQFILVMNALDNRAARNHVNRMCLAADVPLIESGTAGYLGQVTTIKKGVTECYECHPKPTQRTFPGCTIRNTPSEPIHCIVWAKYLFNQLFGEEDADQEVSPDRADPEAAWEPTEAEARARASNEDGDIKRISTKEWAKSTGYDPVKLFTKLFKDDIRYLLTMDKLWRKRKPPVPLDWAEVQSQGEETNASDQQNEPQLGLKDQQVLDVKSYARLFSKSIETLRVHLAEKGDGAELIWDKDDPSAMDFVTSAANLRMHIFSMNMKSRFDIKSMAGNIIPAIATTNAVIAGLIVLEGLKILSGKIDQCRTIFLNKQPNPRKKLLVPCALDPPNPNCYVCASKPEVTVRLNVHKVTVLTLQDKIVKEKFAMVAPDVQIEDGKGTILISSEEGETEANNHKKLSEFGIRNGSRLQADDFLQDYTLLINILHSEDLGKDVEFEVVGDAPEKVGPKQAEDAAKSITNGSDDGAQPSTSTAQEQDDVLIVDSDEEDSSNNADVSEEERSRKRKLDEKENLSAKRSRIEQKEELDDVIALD

[8] = molecular target: T2, Voltage-gated N-type calcium channel alpha-1B subunit/Amyloid beta A4 precursor protein-binding family A member 1 (Homo sapiens, UniProt Q00975+Q02410); type: protein assay
T2 sequence (Q00975 whole entry): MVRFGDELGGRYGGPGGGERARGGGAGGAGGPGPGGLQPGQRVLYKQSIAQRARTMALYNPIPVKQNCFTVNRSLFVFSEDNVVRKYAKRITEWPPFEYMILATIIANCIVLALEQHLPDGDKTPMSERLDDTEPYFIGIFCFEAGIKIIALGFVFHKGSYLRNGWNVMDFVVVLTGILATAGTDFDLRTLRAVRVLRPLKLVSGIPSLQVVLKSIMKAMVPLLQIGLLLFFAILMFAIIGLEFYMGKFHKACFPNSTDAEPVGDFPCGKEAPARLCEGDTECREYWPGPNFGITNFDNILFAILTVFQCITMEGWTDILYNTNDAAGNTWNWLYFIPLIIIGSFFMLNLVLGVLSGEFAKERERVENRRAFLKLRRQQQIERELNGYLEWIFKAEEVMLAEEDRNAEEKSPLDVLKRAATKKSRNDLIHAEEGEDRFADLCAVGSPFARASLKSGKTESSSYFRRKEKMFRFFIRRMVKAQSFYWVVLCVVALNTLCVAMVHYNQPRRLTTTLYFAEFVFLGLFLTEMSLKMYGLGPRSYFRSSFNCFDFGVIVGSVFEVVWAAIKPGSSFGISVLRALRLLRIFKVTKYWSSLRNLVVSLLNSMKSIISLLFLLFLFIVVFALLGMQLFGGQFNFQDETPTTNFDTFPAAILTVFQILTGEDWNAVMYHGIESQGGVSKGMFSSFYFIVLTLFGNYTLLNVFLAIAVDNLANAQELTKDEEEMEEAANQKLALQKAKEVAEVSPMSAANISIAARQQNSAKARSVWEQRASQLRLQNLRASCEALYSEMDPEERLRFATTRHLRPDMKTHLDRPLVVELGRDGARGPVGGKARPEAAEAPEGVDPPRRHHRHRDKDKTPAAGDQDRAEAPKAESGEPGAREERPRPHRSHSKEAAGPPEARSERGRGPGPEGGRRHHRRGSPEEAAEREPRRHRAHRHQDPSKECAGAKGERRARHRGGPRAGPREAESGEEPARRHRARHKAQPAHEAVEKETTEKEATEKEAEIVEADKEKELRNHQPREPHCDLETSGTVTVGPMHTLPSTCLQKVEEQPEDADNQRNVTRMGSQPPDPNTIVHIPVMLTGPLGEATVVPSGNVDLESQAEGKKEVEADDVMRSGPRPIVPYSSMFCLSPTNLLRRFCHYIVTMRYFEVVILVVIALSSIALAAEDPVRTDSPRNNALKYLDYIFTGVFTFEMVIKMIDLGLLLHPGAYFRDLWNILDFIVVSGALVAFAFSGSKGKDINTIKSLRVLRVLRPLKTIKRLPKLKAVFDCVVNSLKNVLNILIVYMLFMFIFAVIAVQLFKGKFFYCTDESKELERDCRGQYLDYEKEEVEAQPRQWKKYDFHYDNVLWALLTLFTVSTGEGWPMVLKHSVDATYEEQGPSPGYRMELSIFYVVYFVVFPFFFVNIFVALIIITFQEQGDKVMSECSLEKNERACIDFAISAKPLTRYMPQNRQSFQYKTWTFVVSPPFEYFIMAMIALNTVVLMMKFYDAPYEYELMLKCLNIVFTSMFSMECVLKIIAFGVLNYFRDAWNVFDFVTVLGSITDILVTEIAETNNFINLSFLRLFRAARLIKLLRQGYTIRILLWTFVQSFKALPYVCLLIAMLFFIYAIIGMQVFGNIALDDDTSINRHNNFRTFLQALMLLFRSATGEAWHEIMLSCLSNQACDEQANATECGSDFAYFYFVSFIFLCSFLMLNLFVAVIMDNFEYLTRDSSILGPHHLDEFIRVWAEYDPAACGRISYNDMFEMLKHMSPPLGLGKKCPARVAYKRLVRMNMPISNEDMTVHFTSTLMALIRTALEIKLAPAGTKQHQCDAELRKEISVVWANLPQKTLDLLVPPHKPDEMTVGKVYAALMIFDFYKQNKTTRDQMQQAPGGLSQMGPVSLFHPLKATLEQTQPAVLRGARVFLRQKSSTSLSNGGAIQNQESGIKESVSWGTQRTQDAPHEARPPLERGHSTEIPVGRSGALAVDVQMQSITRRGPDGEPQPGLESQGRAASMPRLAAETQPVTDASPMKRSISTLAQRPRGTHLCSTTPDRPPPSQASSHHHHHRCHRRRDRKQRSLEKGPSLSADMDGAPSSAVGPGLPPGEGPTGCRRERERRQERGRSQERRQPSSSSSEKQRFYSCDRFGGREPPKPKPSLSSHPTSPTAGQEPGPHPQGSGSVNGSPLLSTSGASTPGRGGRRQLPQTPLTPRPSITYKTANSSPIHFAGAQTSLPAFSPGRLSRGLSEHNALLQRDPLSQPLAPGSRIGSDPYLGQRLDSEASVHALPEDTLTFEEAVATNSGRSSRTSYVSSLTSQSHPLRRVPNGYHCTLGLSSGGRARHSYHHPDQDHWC
T2 sequence (Q02410 whole entry): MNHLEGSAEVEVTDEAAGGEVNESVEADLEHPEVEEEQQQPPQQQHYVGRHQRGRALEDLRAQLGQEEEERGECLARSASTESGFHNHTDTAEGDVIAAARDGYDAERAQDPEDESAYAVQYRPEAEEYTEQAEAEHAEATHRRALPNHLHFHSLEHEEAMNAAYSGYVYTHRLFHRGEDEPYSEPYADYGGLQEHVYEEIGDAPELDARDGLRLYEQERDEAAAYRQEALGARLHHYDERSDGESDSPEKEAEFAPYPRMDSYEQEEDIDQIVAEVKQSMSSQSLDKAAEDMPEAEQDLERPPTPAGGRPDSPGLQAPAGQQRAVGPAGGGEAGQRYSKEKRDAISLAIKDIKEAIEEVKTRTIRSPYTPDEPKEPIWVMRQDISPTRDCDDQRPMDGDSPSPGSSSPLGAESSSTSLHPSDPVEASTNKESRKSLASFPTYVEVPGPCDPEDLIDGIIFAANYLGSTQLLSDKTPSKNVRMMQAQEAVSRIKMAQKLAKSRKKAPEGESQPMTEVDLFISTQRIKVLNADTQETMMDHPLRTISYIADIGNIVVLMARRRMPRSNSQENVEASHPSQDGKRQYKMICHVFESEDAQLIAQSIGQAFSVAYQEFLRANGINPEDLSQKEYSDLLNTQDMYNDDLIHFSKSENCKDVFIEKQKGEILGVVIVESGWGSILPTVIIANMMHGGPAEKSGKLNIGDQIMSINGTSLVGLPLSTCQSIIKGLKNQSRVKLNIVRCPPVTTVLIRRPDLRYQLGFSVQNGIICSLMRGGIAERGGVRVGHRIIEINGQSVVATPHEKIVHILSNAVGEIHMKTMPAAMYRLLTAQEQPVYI

Large T antigen = Large T antigen (Simian virus 40, UniProt P03070); type: functional, Betapolyomavirus macacae;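 further: Confirmatory-stage PubChem screen for compounds that inhibit SV40 T antigen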
SUMO-activating enzyme [9] = molecular target: T1, SUMO-activating enzyme; test: inhibitors of in vitro SUMOylation cascade, primary screen, biochemical, HTRF, uHTS (AID 2006); type: protein-complex assay
[10] = molecular target: T2, Voltage-gated N-type calcium channel alpha-1B subunit/Amyloid beta A4 precursor protein-binding family A member 1; type: protein assay; remark: listed apart in the source
[11] = molecular target: Bifunctional protein GlmU (Mycobacterium tuberculosis, UniProt P9WMN3); test: Inhibitors of Mycobacterial Glucosamine-1-phosphate acetyl transferase (GlmU). Secondary screen.; design: species or system Mycobacterium tuberculosis H37Rv
[12] = molecular target: Induced myeloid leukemia cell differentiation protein Mcl-1 (Homo sapiens, UniProt Q07820); type: functional
Sequence of Induced myeloid leukemia cell differentiation protein Mcl-1 (Q07820 whole entry): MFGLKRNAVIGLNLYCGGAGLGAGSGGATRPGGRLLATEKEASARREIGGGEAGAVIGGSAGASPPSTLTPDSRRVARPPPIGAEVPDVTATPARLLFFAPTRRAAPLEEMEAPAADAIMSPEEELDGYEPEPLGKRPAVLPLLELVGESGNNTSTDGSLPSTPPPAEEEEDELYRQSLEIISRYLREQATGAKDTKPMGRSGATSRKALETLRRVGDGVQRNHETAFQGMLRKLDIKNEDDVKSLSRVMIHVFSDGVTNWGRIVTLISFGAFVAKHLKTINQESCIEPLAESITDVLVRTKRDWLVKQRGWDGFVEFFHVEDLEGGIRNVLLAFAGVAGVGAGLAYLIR

ORF 73 = ORF 73 (Human herpesvirus 8, UniProt O40947); test: inhibitors of C-LANA binding to LBS DNA, dose response, biochemical, fluorescence polarization, cherry-picked samples (AID 504725); design: species or system Human gammaherpesvirus 8;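 further: fluorescence polarization of a labeled DNA duplex reporting LANA DNA binding; potency is for inhibitors that block LANA binding to the DNA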
[13] = molecular target: Eukaryotic translation initiation factor 4E (Mus musculus, UniProt P63073); test: eIF4E–eIF4G protein interaction inhibitors, dose response, biochemical, TR-FRET (AID 855); type: functional;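 further: potency for disrupting eIF4E binding to eIF4GI seen as loss of FRET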
[14] = molecular target: Beta-adrenergic receptor kinase 1 (Homo sapiens, UniProt P25098); test: aptamer displacement from bead-bound GRK2 – biochemical, cherry pick 1, bead flow cytometry, dose response (AID 504500)
[15] = growth suppression of PTEN-null colon cells, dose response, cell-based, HCT116 PTEN knockout (AID 1047); type: functional;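 further: HCT116 colon tumor cells with PTEN knocked out; cells exposed to compound for 60 hours before readout; potency for loss of cell viability measured by luminescence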
[16] = molecular target: Protein-tyrosine kinase 2-beta (Homo sapiens, UniProt Q14289);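 further: potency of inhibitors of PYK2 kinase phosphorylation of poly-GT substrate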
[17] = molecular target: ADP-ribosylation factor GTPase-activating protein 1 (Rattus norvegicus, UniProt Q62848); test: Fluorescence polarization-based biochemical high throughput dose response screening assay to identify inhibitors of ADP-ribosylation factor GTPase activating protein 1 (ARFGAP1).; type: functional
Sequence of ADP-ribosylation factor GTPase-activating protein 1 (Q62848 whole entry, the tested form may be a part): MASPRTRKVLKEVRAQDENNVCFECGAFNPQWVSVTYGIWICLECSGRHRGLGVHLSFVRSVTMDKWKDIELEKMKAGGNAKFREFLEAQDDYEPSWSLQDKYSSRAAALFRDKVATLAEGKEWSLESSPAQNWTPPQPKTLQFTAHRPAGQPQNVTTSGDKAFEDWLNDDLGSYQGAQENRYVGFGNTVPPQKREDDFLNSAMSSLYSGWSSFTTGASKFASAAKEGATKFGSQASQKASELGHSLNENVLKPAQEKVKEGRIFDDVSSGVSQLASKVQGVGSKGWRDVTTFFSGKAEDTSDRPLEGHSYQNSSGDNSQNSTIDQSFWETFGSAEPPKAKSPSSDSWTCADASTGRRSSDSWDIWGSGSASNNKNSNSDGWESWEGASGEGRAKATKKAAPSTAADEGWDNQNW

[18] = molecular target: Arf-GAP with SH3 domain, ANK repeat and PH domain-containing protein 1 (Homo sapiens, UniProt Q9ULH1); type: functional;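 further: biochemical fluorescence polarization dose–response screen measuring inhibition of ASAP1; ASAP1 GAP domain stimulating GTP hydrolysis by truncated human ARF1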
[19] = molecular target: Serine/threonine-protein phosphatase PP1-alpha catalytic subunit (Homo sapiens, UniProt P62136); test: PP1 phosphatase inhibitors, dose response, biochemical, fluorescence (AID 2394)
[20] = microbe, parasite or virus in culture; type: functional; conditions: Mycobacterium tuberculosis
[21] = molecular target: T3, Serine/threonine-protein phosphatase (Homo sapiens, UniProt Q9BPW0); test: PP5 phosphatase inhibitors, dose response, biochemical, fluorescence (AID 2395)
T3 sequence (Q9BPW0 whole entry): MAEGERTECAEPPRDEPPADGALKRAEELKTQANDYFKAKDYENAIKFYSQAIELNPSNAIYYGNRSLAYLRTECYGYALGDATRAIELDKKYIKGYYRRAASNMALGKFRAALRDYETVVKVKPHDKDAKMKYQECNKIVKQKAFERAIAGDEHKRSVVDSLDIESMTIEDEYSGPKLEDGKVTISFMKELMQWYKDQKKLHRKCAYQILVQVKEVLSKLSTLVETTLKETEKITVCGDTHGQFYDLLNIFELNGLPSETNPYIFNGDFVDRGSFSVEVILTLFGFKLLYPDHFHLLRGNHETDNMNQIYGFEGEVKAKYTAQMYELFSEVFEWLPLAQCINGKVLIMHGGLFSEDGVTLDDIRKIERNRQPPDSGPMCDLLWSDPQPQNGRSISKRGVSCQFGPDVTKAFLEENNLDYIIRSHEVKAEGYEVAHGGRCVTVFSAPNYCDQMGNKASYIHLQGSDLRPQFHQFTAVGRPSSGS

[22] = molecular target: T4, Heat shock factor protein 1 (Mus musculus, UniProt P38532); test: HSF1 potentiators in luciferase reporter cells, confirmation, cell-based, NIH3T3, luminescence, dose retest (AID 435004); type: functional;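 further: stress induced by proteasome inhibitor MG132 added 30 min after compound; luciferase reporter driven by HSF1 response element in NIH3T3 cells; actives raise luminescence as potentiators of the MG132 stress response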
T4 sequence (P38532 whole entry): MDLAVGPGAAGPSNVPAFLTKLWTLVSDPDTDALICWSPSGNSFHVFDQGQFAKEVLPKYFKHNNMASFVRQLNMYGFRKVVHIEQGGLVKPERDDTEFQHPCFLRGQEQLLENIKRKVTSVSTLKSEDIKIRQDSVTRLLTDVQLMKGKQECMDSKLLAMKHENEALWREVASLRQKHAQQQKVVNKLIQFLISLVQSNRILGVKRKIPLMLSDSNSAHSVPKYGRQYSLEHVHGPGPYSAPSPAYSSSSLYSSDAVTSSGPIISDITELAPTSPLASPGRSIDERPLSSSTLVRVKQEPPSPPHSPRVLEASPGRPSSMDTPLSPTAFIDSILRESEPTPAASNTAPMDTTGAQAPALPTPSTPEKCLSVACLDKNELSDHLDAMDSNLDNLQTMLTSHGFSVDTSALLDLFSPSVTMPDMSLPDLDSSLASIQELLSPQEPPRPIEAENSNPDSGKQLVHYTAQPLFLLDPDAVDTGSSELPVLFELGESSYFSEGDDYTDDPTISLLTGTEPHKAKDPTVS

[23] = ARNT/TACC3 interaction disruptors, potency, confirmation, biochemical, AlphaScreen, cherry-picked samples (AID 651703); type: functional, Homo sapiens;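 further: His-tagged ARNT PAS-B domain paired with GST-TACC3 E629A dimer coactivator fragment; potency of inhibitors that break up the complex and lower AlphaScreen signal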
Genome polyprotein = Genome polyprotein (Hepatitis C virus, UniProt Q2Q167); test: HCV core protein dimerization inhibitors, dose response, biochemical, TR-FRET (AID 2159); design: species or system Hepacivirus hominis;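 further: blocks dimerization of HCV core protein measured by TR-FRET between tagged core106 pairs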
Sequence of Genome polyprotein (Q2Q167 whole entry): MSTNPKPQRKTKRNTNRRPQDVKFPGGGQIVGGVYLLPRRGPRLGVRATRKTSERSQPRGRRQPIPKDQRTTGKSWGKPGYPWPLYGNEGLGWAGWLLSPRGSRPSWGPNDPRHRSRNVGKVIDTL

[24] = molecular target: Peroxisome proliferator-activated receptor gamma/Nuclear receptor coactivator 1 (Homo sapiens, UniProt P37231); test: (§1) TR-FRET dose response biochemical High Throughput Screening assay for agonists of the steroid receptor coactivator 1 (SRC-1) recruitment by the peroxisome proliferator-activated receptor gamma (PPAR gamma): non-selective agonists. [Related pubchem assays (depositor defined):AID1300, AID1808, AID504735, AID631]; type: protein assay
[25] = molecular target: Peroxisome proliferator-activated receptor gamma/Nuclear receptor coactivator 3 (Homo sapiens, UniProt P37231); test: as §1, with “3 (SRC-3)” for “1 (SRC-1)”, “assays: 1301 (Confirmation screen.), 1048 (Primary screen.)]” for “assays (depositor defined):AID1300, AID1808, AID504735, AID631]”; type: functional
Estrogen receptor = molecular target: T5, Estrogen receptor (Homo sapiens, UniProt P03372);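 further: potency for inhibiting coactivator peptide recruitment to the receptor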
T5 sequence (P03372 whole entry): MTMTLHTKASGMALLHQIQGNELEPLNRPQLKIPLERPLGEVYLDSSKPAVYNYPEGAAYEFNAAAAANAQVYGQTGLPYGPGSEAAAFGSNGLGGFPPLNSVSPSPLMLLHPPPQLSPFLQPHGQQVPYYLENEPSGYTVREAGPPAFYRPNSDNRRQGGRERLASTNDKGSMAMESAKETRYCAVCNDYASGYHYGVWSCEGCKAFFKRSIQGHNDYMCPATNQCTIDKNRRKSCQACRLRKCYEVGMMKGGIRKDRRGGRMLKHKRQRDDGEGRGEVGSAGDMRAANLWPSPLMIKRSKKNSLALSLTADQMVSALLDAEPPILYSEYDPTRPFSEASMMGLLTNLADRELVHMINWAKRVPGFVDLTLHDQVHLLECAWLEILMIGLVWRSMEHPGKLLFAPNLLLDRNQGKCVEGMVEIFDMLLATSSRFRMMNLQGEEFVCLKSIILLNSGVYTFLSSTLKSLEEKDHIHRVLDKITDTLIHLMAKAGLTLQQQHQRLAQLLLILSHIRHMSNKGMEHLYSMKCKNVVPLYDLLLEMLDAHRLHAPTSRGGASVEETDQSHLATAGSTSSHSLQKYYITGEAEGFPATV

[26] = molecular target: Peroxisome proliferator-activated receptor gamma/Nuclear receptor coactivator 2 (Homo sapiens, UniProt P37231); test: TR-FRET dose response biochemical High Throughput Screening assay for agonists of the steroid receptor coactivator 2 (SRC-2) recruitment by the peroxisome proliferator-activated receptor gamma (PPAR gamma): non-selective agonists. [Related pubchem assays: 1297, 1032 ]; type: functional
[27] = molecular target: Heat shock protein HSP 90-alpha (Homo sapiens, UniProt P07900); test: Luminescence-based dose response biochemical high throughput screening assay for inhibitors of the Heat Shock Protein 90 (HSP90). [Related pubchem assays: 1831 (Summary AID.), 1846 (Confirmation screen.), 1789 (Primary screen.)]
Estrogen receptor beta = Estrogen receptor beta (Homo sapiens, UniProt Q92731);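 further: recombinant ER-beta bound to coactivator SRC1 peptide in presence of estradiol agonist; inhibitors block coactivator peptide binding and lower the FRET signal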
Bcl-2-related protein A1 [28] = molecular target: T6, Bcl-2-related protein A1 (Mus musculus, UniProt Q07440); test: Bfl-1 inhibitors, primary screen, biochemical, fluorescence polarization, FITC-Bid, mouse (AID 432)
T6 sequence (Q07440 whole entry): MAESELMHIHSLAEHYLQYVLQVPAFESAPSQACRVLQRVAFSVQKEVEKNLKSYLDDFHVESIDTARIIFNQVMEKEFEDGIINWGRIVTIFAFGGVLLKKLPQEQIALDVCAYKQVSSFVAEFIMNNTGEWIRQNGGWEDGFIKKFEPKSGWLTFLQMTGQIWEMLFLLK

Bcl-2-related protein A1 [29] = molecular target: T6, Bcl-2-related protein A1; test: Bfl-1 inhibitors blocking BH3 peptide binding, confirmation, biochemical, TR-FRET, mouse Bfl-1 (AID 621);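 further: TR-FRET binding of GST-Bfl-1 to FITC-labelled Bid peptide via terbium antibody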

O=C(Nc1nnc(-c2ccc(Cl)cc2)o1)c1ccccc1Br
EC50 [1]: 12.8 µM (not active) | EC50 [2]: 3.15 µM (active) | EC50 (Streptococcus): 5.91 µM (active) | CC50 [3]: 37 µM (active) | CC50 [4]: 18 µM (active) | IC50 (cells): 3.74 µM (active)

Cc1ccc2[nH]c3c(c2c1)CN(C(=O)CN1CCN(c2ccccn2)CC1)CC3
IC50 [5]: > 100 µM (active) | EC50 [6]: > 104 µM (inactive)

Cc1ccccc1C(=O)c1cccn1CC(=O)NCC1CCCO1 (configuration not stated)
IC50 (Ephrin type-A receptor 4): > 100 µM (not active)

Cc1ccc(NC(=O)CN2C(=O)N/C(=C/c3cccn3-c3ccc(C(=O)O)cc3)C2=O)cc1
IC50 (SUMO-activating enzyme [7]): 1.09 µM (active) | IC50 [8]: 10.5 µM (active) | IC50 (Large T antigen): 24.7 µM (active) | IC50 (SUMO-activating enzyme [9]): 12 µM (active) | IC50 [10]: 28.9 µM (active) | IC50 [11]: 29.4 µM (active) | IC50 [12]: 0.996 µM (not active) | AC50 (ORF 73): 33.9 µM (active) | IC50 [13]: 9.54 µM (active) | EC50 [14]: 1.21 µM (active)

Cc1ccc2cc3cc(C(=O)NCc4ccc5c(c4)OCO5)oc3nc2c1
EC50 [15]: 20.9 µM (active) | IC50 [16]: 46.5 µM (not active) | IC50 [17]: 16.7 µM (inactive) | IC50 [18]: 12.5 µM (inactive)

CCCCN(CC)c1nc(N)c2c(N)nc(OCC)cc2c1C#N
IC50 [19]: > 67 µM (not active) | CC50 [20]: > 40 µM (active) | IC50 [21]: 15.2 µM (not active) | EC50 [22]: > 260 µM (inactive) | AC50 [23]: 92.8 µM (active)

Cc1cc(C(=O)OCC(=O)c2ccc(Br)s2)no1
IC50 (Genome polyprotein): > 49.8 µM (not active) | EC50 [24]: 137 µM (inactive) | EC50 [25]: > 79.4 µM (not active) | IC50 (Estrogen receptor): 36.2 µM (not active) | EC50 [26]: 3.89 µM (active)

Cc1nc(NC(=O)c2ccc(F)cc2)sc1C(=O)Nc1ccc2c(c1)CCC2
IC50 [27]: 3.84 µM (active)

CC(=N)/C(C#N)=C(/O)CSc1nnc(Nc2cccc(C)c2C)s1
IC50 (Estrogen receptor beta): 12.3 µM (active)

CC(C)[C@H]1C(=O)N2CCC[C@H]2[C@]2(O)O[C@](NC(=O)[C@@H]3C=C4c5cccc6[nH]cc(c56)C[C@H]4N(C)C3)(C(C)C)C(=O)N12 [ERGOCORNINE]
IC50 (Bcl-2-related protein A1 [28]): > 100 µM (not active) | IC50 (Bcl-2-related protein A1 [29]): > 100 µM (not active)

Source: ChEMBL document CHEMBL1201862, “PubChem BioAssay data set” (2004)
